Measurements taken from PubChem BioAssay AID248 (DTP/NCI, 2004).
Where “and” joins values, the source holds several entries; their conditions need not be identical. Equal entries are not always repeated. Toxic doses and inconclusive results are not listed.

Test system: L1210 leukemia ip in BDF1 mice, survival T/C
Test: NCI In Vivo Anticancer Drug Screen. Data for tumor model L1210 Leukemia (intraperitoneal) in B6D2F1 (BDF1) mice
Settings: endpoint: mean survival time, higher = longer survival
How it was run: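 Transplanted-tumor mice were given test agent; controls received vehicle only. Survival readings from the two groups were divided (treated over control).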

[1] = dose: 100.0 mg/kg/injection, schedule: Q04DX003 (ip), vehicle: Klucel (hydroxypropylcellulose) (HPC)
[2] = dose: 200.0 mg/kg/injection, schedule: Q04DX003 (ip), vehicle: Klucel (hydroxypropylcellulose) (HPC)
[3] = dose: 400.0 mg/kg/injection, schedule: Q04DX003 (ip), vehicle: Klucel (hydroxypropylcellulose) (HPC)
[4] = dose: 100.0 mg/kg/injection, schedule: Q01DX009 (ip), vehicle: Klucel (hydroxypropylcellulose) (HPC)
[5] = dose: 50.0 mg/kg/injection, schedule: Q01DX001 (ip), vehicle: saline
[6] = dose: 100.0 mg/kg/injection, schedule: Q01DX001 (ip), vehicle: saline
[7] = dose: 200.0 mg/kg/injection, schedule: Q01DX001 (ip), vehicle: saline
[8] = dose: 400.0 mg/kg/injection, schedule: Q01DX001 (ip), vehicle: saline
[9] = dose: 100.0 mg/kg/injection, schedule: Q01DX009 (ip), vehicle: saline with Tween-80
[10] = dose: 100.0 mg/kg/injection, schedule: Q04DX002 (ip), vehicle: saline with Tween-80
[11] = dose: 100.0 mg/kg/injection, schedule: Q04DX003 (ip), vehicle: saline with Tween-80
[12] = dose: 200.0 mg/kg/injection, schedule: Q01DX009 (ip), vehicle: saline with Tween-80
[13] = dose: 200.0 mg/kg/injection, schedule: Q04DX002 (ip), vehicle: saline with Tween-80
[14] = dose: 200.0 mg/kg/injection, schedule: Q04DX003 (ip), vehicle: saline with Tween-80
[15] = dose: 400.0 mg/kg/injection, schedule: Q04DX002 (ip), vehicle: saline with Tween-80
[16] = dose: 400.0 mg/kg/injection, schedule: Q04DX003 (ip), vehicle: saline with Tween-80
[17] = dose: 12.5 mg/kg/injection, schedule: Q01DX009 (ip), vehicle: Klucel (hydroxypropylcellulose) (HPC)
[18] = dose: 25.0 mg/kg/injection, schedule: Q01DX009 (ip), vehicle: Klucel (hydroxypropylcellulose) (HPC)
[19] = dose: 50.0 mg/kg/injection, schedule: Q01DX009 (ip), vehicle: Klucel (hydroxypropylcellulose) (HPC)
[20] = dose: 100.0 mg/kg/injection, schedule: Q01DX001 (ip), vehicle: carboxymethylcellulose (CMC)
[21] = dose: 200.0 mg/kg/injection, schedule: Q01DX001 (ip), vehicle: carboxymethylcellulose (CMC)
[22] = dose: 400.0 mg/kg/injection, schedule: Q01DX001 (ip), vehicle: carboxymethylcellulose (CMC)
[23] = dose: 100.0 mg/kg/injection, schedule: Q01DX001 (ip), vehicle: Klucel (hydroxypropylcellulose) (HPC)
[24] = dose: 100.0 mg/kg/injection, schedule: Q04DX003 (ip), vehicle: saline
[25] = dose: 200.0 mg/kg/injection, schedule: Q04DX003 (ip), vehicle: saline
[26] = dose: 400.0 mg/kg/injection, schedule: Q04DX003 (ip), vehicle: saline
[27] = dose: 50.0 mg/kg/injection, schedule: Q01DX001 (ip), vehicle: carboxymethylcellulose (CMC)
[28] = dose: 400.0 mg/kg/injection, schedule: Q01DX009 (ip), vehicle: saline with Tween-80

SMILES: O=C(/C=C(/CC(=O)c1ccccc1)C(=O)c1ccccc1)c1ccccc1
- T/C [1]: 103 % of control
- T/C [2]: 95 % of control
- T/C [3]: 101 % of control

SMILES: O=C(O)COc1ccc(Cl)cc1I
- T/C (dose: 100.0 mg/kg/injection, schedule: Q04DX002 (ip), vehicle: Klucel (hydroxypropylcellulose) (HPC)): 120 % of control
- T/C (dose: 200.0 mg/kg/injection, schedule: Q04DX002 (ip), vehicle: Klucel (hydroxypropylcellulose) (HPC)): 97 % of control

SMILES: O=C(O)c1c(Br)c(Br)c(Br)c(Br)c1C(=O)Nc1ccc(Cl)cc1C(F)(F)F
- T/C [4]: 101 % of control
- T/C (dose: 200.0 mg/kg/injection, schedule: Q01DX009 (ip), vehicle: Klucel (hydroxypropylcellulose) (HPC)): 112 % of control
- T/C (dose: 400.0 mg/kg/injection, schedule: Q01DX009 (ip), vehicle: Klucel (hydroxypropylcellulose) (HPC)): 102 % of control

SMILES: O=C(O)CCC(=O)Nc1ccccc1CC(c1c[nH]c2ccccc12)c1c[nH]c2ccccc12
- T/C [5]: 106 % of control
- T/C [6]: 104 % of control
- T/C [7]: 106 % of control
- T/C [8]: 104 % of control

SMILES: O=C(Nc1ccc(I)cc1)Nc1ccc(Cl)cc1[N+](=O)[O-]
- T/C (dose: 100.0 mg/kg/injection, schedule: Q01DX001 (ip), vehicle: saline with Tween-80): 96 % of control
- T/C [9]: 97 % of control and 92 % of control
- T/C [10]: 98 % of control and 91 % of control
- T/C [11]: 93 % of control
- T/C (dose: 200.0 mg/kg/injection, schedule: Q01DX001 (ip), vehicle: saline with Tween-80): 90 % of control
- T/C [12]: 87 % of control
- T/C [13]: 94 % of control and 98 % of control
- T/C [14]: 97 % of control
- T/C (dose: 400.0 mg/kg/injection, schedule: Q01DX001 (ip), vehicle: saline with Tween-80): 87 % of control
- T/C [15]: 93 % of control and 91 % of control
- T/C [16]: 95 % of control

SMILES: COc1cc(Cl)ccc1NC(=O)Oc1ccccc1C(N)=O
- T/C (dose: 6.25 mg/kg/injection, schedule: Q01DX009 (ip), vehicle: Klucel (hydroxypropylcellulose) (HPC)): 102 % of control
- T/C [17]: 91 % of control
- T/C [18]: 97 % of control
- T/C [19]: 91 % of control
- T/C [4]: 100 % of control

SMILES: CS(=O)(=O)n1c(CCl)nc2ccccc21
- T/C [5]: 96 % of control
- T/C [6]: 104 % of control
- T/C [7]: 102 % of control
- T/C [8]: 102 % of control

SMILES: O=C(N/N=C/c1ccc(Cl)cc1Cl)C(O)(c1ccccc1)c1ccccc1
- T/C [20]: 111 % of control
- T/C [21]: 101 % of control
- T/C [22]: 92 % of control

SMILES: O=[N+]([O-])c1ccc(/C=N\N=C\c2ccc([N+](=O)[O-])cc2)cc1
- T/C (dose: 100.0 mg/kg/injection, schedule: Q01DX001 (ip), vehicle: other): 104 % of control
- T/C (dose: 200.0 mg/kg/injection, schedule: Q01DX001 (ip), vehicle: other): 104 % of control
- T/C (dose: 400.0 mg/kg/injection, schedule: Q01DX001 (ip), vehicle: other): 104 % of control

SMILES: COc1cc2ccnc(-c3onc4cc(OC)c(OC)cc34)c2cc1OC
- T/C (dose: 75.0 mg/kg/injection, schedule: Q01DX001 (ip), vehicle: saline): 101 % of control
- T/C (dose: 150.0 mg/kg/injection, schedule: Q01DX001 (ip), vehicle: saline): 98 % of control
- T/C (dose: 300.0 mg/kg/injection, schedule: Q01DX001 (ip), vehicle: saline): 98 % of control

SMILES: CN(Cc1ccc2nc(N)[nH]c(=O)c2c1)c1ccc(C(=O)NC(CCC(=O)O)C(=O)O)cc1 (stereo not drawn)
- T/C (dose: 50.0 mg/kg/injection, schedule: Q01DX009 (ip), vehicle: water): 104 % of control
- T/C (dose: 100.0 mg/kg/injection, schedule: Q01DX009 (ip), vehicle: water): 113 % of control
- T/C (dose: 100.0 mg/kg/injection, schedule: Q04DX003 (ip), vehicle: water): 108 % of control
- T/C (dose: 200.0 mg/kg/injection, schedule: Q04DX003 (ip), vehicle: water): 100 % of control

SMILES: CCCCCOc1ccc(Nc2c3ccccc3nc3ccccc23)cc1
- T/C [23]: 102 % of control
- T/C (dose: 200.0 mg/kg/injection, schedule: Q01DX001 (ip), vehicle: Klucel (hydroxypropylcellulose) (HPC)): 111 % of control
- T/C (dose: 400.0 mg/kg/injection, schedule: Q01DX001 (ip), vehicle: Klucel (hydroxypropylcellulose) (HPC)): 107 % of control

SMILES: CC(C)(C)C1CC(Cl)C(=O)C(Cl)C1 (stereo not drawn)
- T/C [6]: 104 % of control
- T/C [24]: 96 % of control
- T/C [7]: 94 % of control
- T/C [25]: 112 % of control
- T/C [8]: 88 % of control
- T/C [26]: 94 % of control

SMILES: O=C(Nc1nccs1)Nc1cc([N+](=O)[O-])ccc1F
- T/C [1]: 88 % of control
- T/C [2]: 91 % of control
- T/C [3]: 88 % of control

SMILES: CCC(C)(C(=O)O)C(=O)O
- T/C [6]: 103 % of control

SMILES: OC(COc1cccc2ccccc12)CN1CC=C(c2ccccc2)CC1 (stereo not drawn)
- T/C [17]: 103 % of control
- T/C [18]: 100 % of control
- T/C [19]: 101 % of control
- T/C [4]: 100 % of control

SMILES: O=C(O)CSCc1cccc2ccccc12
- T/C [20]: 91 % of control
- T/C [1]: 98 % of control
- T/C [21]: 93 % of control
- T/C [2]: 94 % of control
- T/C [22]: 91 % of control
- T/C [3]: 105 % of control

SMILES: Cc1cccc(NC(=O)N(CCCl)N=O)c1
- T/C (dose: 2.6 mg/kg/injection, schedule: Q01DX009 (ip), vehicle: carboxymethylcellulose (CMC)): 163 % of control
- T/C (dose: 4.0 mg/kg/injection, schedule: Q01DX009 (ip), vehicle: carboxymethylcellulose (CMC)): 164 % of control and 197 % of control
- T/C (dose: 6.0 mg/kg/injection, schedule: Q01DX009 (ip), vehicle: carboxymethylcellulose (CMC)): 150 % of control and 192 % of control
- T/C (dose: 25.0 mg/kg/injection, schedule: Q01DX001 (ip), vehicle: carboxymethylcellulose (CMC)): 101 % of control
- T/C [27]: 86 % of control
- T/C [20]: 86 % of control

SMILES: NNC(=O)CCCCC(=O)NN
- T/C [24]: 100 % of control
- T/C [25]: 97 % of control
- T/C [26]: 100 % of control

SMILES: O=C1C2OC2(c2ccccc2)C(=O)C2OC12c1ccccc1 (stereo not drawn)
- T/C (dose: 75.0 mg/kg/injection, schedule: Q01DX001 (ip), vehicle: Klucel (hydroxypropylcellulose) (HPC)): 96 % of control
- T/C (dose: 150.0 mg/kg/injection, schedule: Q01DX001 (ip), vehicle: Klucel (hydroxypropylcellulose) (HPC)): 87 % of control
- T/C (dose: 300.0 mg/kg/injection, schedule: Q01DX001 (ip), vehicle: Klucel (hydroxypropylcellulose) (HPC)): 91 % of control

SMILES: CCCCCCCC(=O)N1C(=O)CCC1C(=O)NCCCCC(=O)OC (stereo not drawn)
- T/C [10]: 103 % of control
- T/C [13]: 116 % of control
- T/C [15]: 90 % of control

SMILES: CC(=O)Oc1oc(-c2ccccc2)nc1-c1ccccc1
- T/C [9]: 108 % of control
- T/C [11]: 98 % of control
- T/C [12]: 94 % of control
- T/C [14]: 100 % of control
- T/C [28]: 97 % of control
- T/C [16]: 104 % of control

SMILES: CSc1ncnc2c1ncn2C1CCCO1 (stereo not drawn)
- T/C (dose: 37.5 mg/kg/injection, schedule: Q01DX Z (ip), vehicle: methylcellulose (MC)): 101 % of control
- T/C (dose: 75.0 mg/kg/injection, schedule: Q01DX Z (ip), vehicle: methylcellulose (MC)): 111 % of control

SMILES: Cc1ccccc1OCCCCCl
- T/C [9]: 95 % of control
- T/C [11]: 97 % of control
- T/C [12]: 88 % of control
- T/C [14]: 92 % of control
- T/C [28]: 89 % of control
- T/C [16]: 100 % of control

SMILES: CC(=O)OC1CCSc2ccccc21 (stereo not drawn)
- T/C [27]: 95 % of control
- T/C [20]: 93 % of control
- T/C [21]: 104 % of control
- T/C [22]: 90 % of control

SMILES: COc1cccc(C(=O)O)c1N
- T/C (dose: 25.0 mg/kg/injection, schedule: Q01DX001 (ip), vehicle: Klucel (hydroxypropylcellulose) (HPC)): 102 % of control
- T/C (dose: 50.0 mg/kg/injection, schedule: Q01DX001 (ip), vehicle: Klucel (hydroxypropylcellulose) (HPC)): 98 % of control
- T/C [23]: 91 % of control

SMILES: CCCCCCCCCCSc1ncnc2c1ncn2CO
- T/C [5]: 91 % of control
- T/C [6]: 101 % of control
- T/C [7]: 117 % of control
- T/C [8]: 120 % of control
